Structures are written as SMILES. Several values for one entry are separate records, joined by “and”; a condition that tells them apart may be missing. Identical values can stand only once. Like-named read-outs stand apart in the source and are kept apart here.

Data set [1] can be described thus: Metabolic stability in human liver microsomes. Format: in vitro ADME. Particulars: 120 min incubation with HLMs. On the procedure: The in silico prediction of the most probable sites of metabolism was done by MetaSite 6.0.1 software (Molecular Discovery Ltd, Hertfordshire, UK). The metabolic pathways determination in vitro was performed by 120 min compounds incubation with human liver microsomes (HLMs) purchased from Sigma-Aldrich, St. Louis, MO, USA. The reactions were conducted in 10 mM Tris–HCl buffer (pH 7.4) at 37 °C in the presence of NADPH Regeneration System (Promega, Madison, WI, USA). UPLC/MS analyses were done using the Waters ACQUITY TQD system with the TQ Detector (Waters, Milford, USA).
UPLC chromatograms of the reaction mixtures and the proposed structures of metabolites.
Figure S46. UPLC spectra after 120 min incubation of compound 6 with HLMs. 89.57% of the parent compound remained in the reaction mixture. One metabolite (M1, m/z = 460.30) […]
(1 picture or pasted object on this page, not shown here)

The next data set concerns the target T1, mGAT4 (Mus musculus, UniProt P31650).
T1 sequence (P31650 1-627): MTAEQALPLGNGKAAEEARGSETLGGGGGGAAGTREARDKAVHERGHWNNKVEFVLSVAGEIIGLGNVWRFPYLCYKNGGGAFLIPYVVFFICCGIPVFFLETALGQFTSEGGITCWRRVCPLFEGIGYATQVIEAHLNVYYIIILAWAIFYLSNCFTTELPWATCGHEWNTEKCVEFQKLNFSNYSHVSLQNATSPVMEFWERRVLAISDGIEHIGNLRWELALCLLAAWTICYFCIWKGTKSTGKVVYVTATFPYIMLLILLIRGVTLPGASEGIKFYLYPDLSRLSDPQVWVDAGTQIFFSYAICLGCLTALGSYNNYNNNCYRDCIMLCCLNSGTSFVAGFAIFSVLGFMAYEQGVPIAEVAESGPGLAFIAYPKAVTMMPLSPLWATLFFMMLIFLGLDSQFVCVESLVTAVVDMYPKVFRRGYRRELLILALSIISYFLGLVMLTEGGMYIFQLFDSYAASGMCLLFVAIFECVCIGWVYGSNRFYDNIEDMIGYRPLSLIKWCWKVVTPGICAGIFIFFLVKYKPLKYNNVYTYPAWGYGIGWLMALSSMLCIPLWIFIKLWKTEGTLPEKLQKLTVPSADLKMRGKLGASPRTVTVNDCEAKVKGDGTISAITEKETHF
The data set is described as follows: [3H]GABA uptake assay, mGAT4. Format: cell-based.

Another data set has as its target T2, mGAT2 (Mus musculus, UniProt P31651).
T2 sequence (P31651 1-614): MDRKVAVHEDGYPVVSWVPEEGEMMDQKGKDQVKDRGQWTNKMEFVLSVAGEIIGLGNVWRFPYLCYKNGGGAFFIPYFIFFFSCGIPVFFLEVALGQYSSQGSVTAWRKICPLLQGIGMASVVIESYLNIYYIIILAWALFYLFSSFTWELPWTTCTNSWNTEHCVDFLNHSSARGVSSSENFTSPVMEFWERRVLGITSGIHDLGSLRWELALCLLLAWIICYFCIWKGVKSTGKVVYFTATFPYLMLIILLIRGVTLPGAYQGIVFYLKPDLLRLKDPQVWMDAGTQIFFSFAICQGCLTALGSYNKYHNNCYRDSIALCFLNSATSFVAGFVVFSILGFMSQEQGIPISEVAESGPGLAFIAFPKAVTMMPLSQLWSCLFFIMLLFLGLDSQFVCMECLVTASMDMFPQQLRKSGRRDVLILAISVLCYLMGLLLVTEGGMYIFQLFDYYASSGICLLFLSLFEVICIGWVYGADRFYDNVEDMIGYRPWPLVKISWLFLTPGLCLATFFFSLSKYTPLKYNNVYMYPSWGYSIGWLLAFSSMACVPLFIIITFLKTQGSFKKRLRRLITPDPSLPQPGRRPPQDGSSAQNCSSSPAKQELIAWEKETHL
The data set is described as follows: [3H]GABA uptake assay, mGAT2. Format: cell-based.

A short description of data set [2]: Cell viability, PrestoBlue (neurotoxicity). Format: cell-based. The note with it: mouse, 24 h, read-out: viability, neurotoxicity X [%]. On the procedure:
(§1) Mouse Hippocampal Neuronal (HT-22) were cultured in Dulbecco's modified Eagle's Medium - high glucose (DMEM, Glutamx Thermo Fisher) supplemented with 10% inactivated fetal bovine serum heat (Thermo Fisher), 100 IU/ml penicillin (Sigma Aldrich) and 100 µg/ml streptomycin (Merck). Cells were cultured in flasks (area 75 cm2, Nunc), and incubated at 37°C, 5% CO2. For the measurement of cell viability cells were placed in a 96-well culture plate (2x10^4 cells per well, Falcon). Before the tests, cells were grown for 24 hours in the incubator (37°C, 5% CO2).
(§2) Preparation of stock solutions of tested compounds
(§3) Stock solutions were prepared in the concentration of 10 mM for test and reference compounds. Minimum 1 mg of each tested compound was weighed and dissolved in appropriate volume of dimethyl sulfoxide. Serial dilutions were prepared in DMSO and then the diluted compounds were transferred to PBS. Before assays eventual precipitation or opalescence was checked. All experiments were performed in duplicates, in three independent experiments. Cell viability was measured after 24 hours of incubation with tested cell line.
(§4) Cell viability was evaluated using the Presto Blue reagent (Thermo Fisher), according to the manufacturer procedures. Following 24 hours of incubation with the tested molecule, PrestoBlue reagent was added to a microplate well in an amount equal to one tenth of the remaining medium volume. The resulting mixture was incubated for 15 minutes at 37°C, and the fluorescence intensity (EX 530; EM 580 nm) was measured in the plate reader POLARstar Omega, (BMG Labtech). The results (viability values) are provided as a percentage of live cells with respect to DMSO (control sample).
(§5) Viability values were calculated as a percentage of live cells with respect to the control sample (DMSO). The negative control was medium without cells. IC 50 was determined by […]
(§6) nonlinear regression analysis using GraphPad Prism 9.0 software. All values are expressed as […]
(§7) Table S10. The viability of cells. neurotoxicity immuntoxicity
(§8) The results (viability values) are provided as a percentage of live cells with respect to DMSO (control sample)
(§9) Table S11. The viability of cells.

Data set [3] deals with Mouse Hippocampal Neuronal (HT-22). The data set is described as follows: Cell viability, PrestoBlue (neurotoxicity). Format: cell-based. Particulars: Mus musculus, HT-22, 24 h. On the procedure:
as §1, §2, §3, §4, §5, §6, §7, §8, §9

Another data set relates to SIM-A9 cells. As to the kind of experiment: Intracellular O2•-, DHE probe, SIM-A9. Format: cell-based, mouse.

With `O[C@H](CNCC1CC1)[C@H](Cc1ccccc1)NC1c2ccccc2-c2ccccc21` [Compound 6], the parent compound remaining in data set [1] is 90% and 89.57%. In addition, the IC50 is 7.76 ± 0.36 µM against mGAT4, 10.7 µM on mGAT2, 23.1 µM in data set [3] (read-out: NEUROTOXICITY IC50) and 22.9 µM in data set [3] (read-out: NEUROTOXICITY pIC (converted)). Besides, in data set [2] (HT-22, 0.1 µM), the viability at 24 h, 0.1 µM was determined as 99%. Also, in data set [2] (HT-22, 1 µM), the viability at 24 h, 1 µM worked out at 100%. In addition, the viability at 24 h, 10 µM in data set [2] (HT-22, 10 µM) came to 99%. In addition, the viability at 24 h, 50 µM in data set [2] (HT-22, 50 µM) was 9.5%. For the same compound, the viability at 24 h, 100 µM in data set [2] (HT-22, 100 µM, vs DMSO) came to 1.7%. Also, the “increase in intracellular O2•-” value in the data set with SIM-A9 cells (all concentrations and times) is given as “no significant increase”. Moreover, in the data set with SIM-A9 cells (conc. = IC50, 24 h), the “decrease of O2•- level” value is recorded as 26%.

(Values after PMC11796312, “Multifunctional, Fluorene‐Based Modulator of Cholinergic and GABAergic Neurotransmission as a Novel Drug Candidate for Palliative Treatment of Alzheimer's Disease” (Angewandte Chemie (International Ed. in English), 2024).)
